Assay results as given in US20260137707A1, “METHODS OF MODULATING ATXN2 EXPRESSION” (University of Utah Research Foundation, priority 2022, published 2026).
“Also recorded” adds a separate entry of the source. Read-outs that look alike come from different tables or passages of the source.

Key:
ATXN2-luc mRNA = ATXN2-luc mRNA abundance in H2 cells by quantitative PCR; type: cell-based; details: 1 and 10 uM, 48 hrs
Excerpt: (§6) Total RNA was extracted from cells cultured in 24-well plates using the RNeasy Mini-Kit (Qiagen Inc.) according to the manufacturer's protocol. DNAse I treated RNAs were used to synthesize cDNA using ProtoScript cDNA synthesis kit (New England Biolabs Inc.). Sets of primers used for qPCR included ATXN2 primers ATXN2-F (5′-[sequence]-3′) & ATXN2-R (5′-[sequence]-3′), ATP1A2 primers ATP1A2-F (5′-[sequence]-3′) & ATP1A2-R (5′-[sequence]-3′), GAPDH primers GAPDH-F133 (5′-[sequence]-3′) & GAPDH-R333 (5′-[sequence]-3′), and mouse Actb primers Actb-F (5′-[sequence]-3′) & Actb-R (5′-[sequence]-3′). qPCR was performed in the Bio-Rad CFX96 instrument (Bio-Rad Inc.) with the Power SYBR Green PCR master mix (Applied Biosystems Inc.). PCR amplification was carried out for 45 cycles. Cycling parameters were denaturation (95° C. for 10 s), annealing (60° C. for 10 s), extension (72° C. for 40 s).
The ATXN2-luc mRNA abundance was determined by quantitative PCR using primers that amplify the luciferase gene. Probabilities are from one-way ANOVA and post-hoc Bonferroni corrected t-tests: ns, not significant; **, P<0.01.

[1] = test system: endogenous non-mutant ATXN2 protein; assay: Western blot of endogenous non-mutant ATXN2 protein in HEK-293 cells; type: cell-based; details: western blotting
mutant ATXN2-Q58 protein = assay: Western blot of mutant ATXN2-Q58 protein in HEK-293 KI cells; type: cell-based; details: western blotting
Excerpt: The n number of blots ranged from 3 to 9.

HSP70 [2] = assay: Western blot of HSP70 in cells (HSP90 target engagement); type: cell-based; details: cultured cells, western blotting
Excerpt: (§7) Probabilities are from one-way ANOVA and post-hoc Bonferroni corrected t-tests: ns, not significant; **, P<0.01.
Probabilities are from one-way ANOVA and post-hoc Bonferroni corrected t-tests: ns, not significant; *, p<0.05; **, p<0.01, ***, p<0.001. The n number of blots ranged from 3 to 9.

[3] = test system: STAU1, mTOR, p62, LC3b, CHOP, eIF3α, BiP; assay: Western blot of STAU1, autophagy and UPR proteins in ATXN2-Q58 HEK-293 KI cells; type: cell-based
Excerpt: (§1) Antibodies included the following: mouse monoclonal anti-Ataxin-2 antibody (Clone 22/Ataxin-2) (BD Biosciences, 611378), rabbit monoclonal anti-Hsp70 antibody (EPR16892) (Abcam, ab181606), mouse monoclonal anti-β-Actin-peroxidase antibody (clone AC-15) (Sigma-Aldrich, A3854), rabbit polyclonal anti-Staufen antibody (Novus Biologicals, NBP1-33202), mouse monoclonal anti-CHOP (L63F7) antibody (Cell Signaling Technology, 2895), rabbit polyclonal anti-phospho-eIF2a (Ser51) antibody (Cell Signaling Technology, 9721), rabbit polyclonal anti-mTOR antibody (Cell Signaling Technology, 2972), rabbit polyclonal anti-SQSTM1/p62 antibody (Cell Signaling Technology, 5114), rabbit polyclonal anti-LC3B antibody (Novus Biologicals, NB100-2220), rabbit monoclonal anti-BiP antibody (C50B12) (Cell Signaling Technology, 3177). Secondary antibodies included peroxidase-conjugated horse anti-mouse IgG (Vector Laboratories, PI-2000) and peroxidase AffiniPure goat anti-rabbit IgG (Jackson ImmunoResearch Laboratories, 111-035-144).
To determine if lowering ATXN2-Q58 in HEK-293 KI cells could restore pathways that are abnormal in SCA2, several proteins were evaluated by western blotting and RNAs by quantitative PCR following 17-DMAG treatment. […] Probabilities are from one-way ANOVA and post-hoc Bonferroni corrected t-tests: ns, not significant; *, p<0.05; **, p<0.01, ***, p<0.001. […]

ATXN2-Q22 = assay: BAC-Q22 mice, ATXN2 western blot; type: in vivo; details: for reduction of ATXN2 protein abundance: ATXN2-BAC mice, IP, 17-DMAG 100 mg/kg, HSP990 4 mg/kg; for ATXN2 abundance: BAC-Q22 mice, IP every other day, 17-DMAG 100 mg/kg 16 days, HSP990 4 mg/kg 10 days
Protocol: (§2) BAC-ATXN2-Q22 (BAC-Q22) mice were used as previously described. BAC-Q22 are transgenic for the complete human ATXN2 gene with all introns and exons, including 16 kb upstream sequence driving ATXN2 expression and the complete 3′-UTR. The mice used in this study were maintained on a mixed B6;D2 background with backcrossing to wildtype vendor-purchased (Jackson Laboratories) mice every five generations. Mice were treated with 17-DMAG or HSP990 by intraperitoneal (IP) injection, 200-300 μl total volume. 17-DMAG was diluted in 40% DMSO and 0.05% Tween 20 and mice received 100 mg/kg 17-DMAG. HSP990 was diluted in 0.6% DMSO and 0.05% Tween 20 and mice received 4 mg/kg HSP990. Control treated mice included vehicle alone. Mice were treated repeatedly as described in Results. Mouse husbandry and surgical procedures were in accordance to Institutional Animal Care and Use Committee (IACUC) approved protocols.
Proteins were prepared, separated on precast polyacrylamide gels (Bio-Rad), transferred to Hybond (Amersham) and detected by ECL (Amersham) as previously described.
as §1
Since 17-DMAG reduced expression of both the wildtype and mutant ATXN2 proteins, its effects were tested using only ATXN2-BAC mice harboring the non-mutant human ATXN2-Q22 gene (BAC-Q22 mice). Reliable detection of mutant ATXN2 protein by western blot in samples isolated from SCA2 BAC mice is possible, but it is challenging and involves use of the 1C2 antibody. To test efficacy of 17-DMAG in the wildtype ATXN2 mice, 27 wk old BAC-Q22 mice were treated (n=4 per group, 2 males, 2 females) every other day over 16-days (days 1, 3, 5, 7, 9, 11, 13, 15) then sacrificed on day 16. […] Three blots were quantified.

HSP70 [4] = assay: BAC-Q22 mice, HSP70 western blot; type: in vivo; details: IP every other day, 17-DMAG 100 mg/kg, HSP990 4 mg/kg
Protocol: as §2
Proteins were prepared, separated on precast polyacrylamide gels (Bio-Rad), transferred to Hybond (Amersham) and detected by ECL (Amersham) as previously described. […]
Since 17-DMAG reduced expression of both the wildtype and mutant ATXN2 proteins, its effects were tested using only ATXN2-BAC mice harboring the non-mutant human ATXN2-Q22 gene (BAC-Q22 mice). […] Three blots were quantified.

[5] = BAC-Q22 mice, survival / tolerability; type: in vivo; details: IP every other day, 17-DMAG 100 mg/kg, HSP990 4 mg/kg
Protocol: as §2
Since 17-DMAG reduced expression of both the wildtype and mutant ATXN2 proteins, its effects were tested using only ATXN2-BAC mice harboring the non-mutant human ATXN2-Q22 gene (BAC-Q22 mice). Reliable detection of mutant ATXN2 protein by western blot in samples isolated from SCA2 BAC mice is possible, but it is challenging and involves use of the 1C2 antibody. […] Three blots were quantified. […]

ATXN3 = details: ATXN3-135Q transgenic mice, cited from earlier work
[6] = cited from earlier work
[7] = cited from earlier work; remark: listed apart in the source
ATXN2-luc [8] = assay: qHTS (NCGC LOPAC pilot and primary), Steady-Glo luciferase, 1536-well; type: cell-based
Protocol: 4 μl of S2 cell suspension in phenol-red free DMEM was dispensed into wells of 1536-well assay plates. […] Next, SteadyGlo luciferase substrate detection reagent (3 μl) was added to each well and incubated for an additional 5 minutes at room temperature. Luminescence was then measured on the ViewLux imager equipped with clear filters using a 2 sec exposure. All screening operations were performed on a fully integrated robotic system (Kalypsys) containing one RX-130 and two RX-90 anthropomorphic robotic arms (Staubli). Vehicle-only plates, with DMSO being pin-transferred to columns 5-48, were inserted uniformly at the beginning and the end of each library in order to monitor and record any shifts in assay performance.
Screening to optimize the assay in 1536-well format was conducted at the NCGC laboratory using S2 cells. […] Cytotoxicity was determined using a multiplexed viability assay (CellTiter-Fluor). […] Cells were plated 1000 cells/well in 1536 well plates. Plates were assayed for ATXN2-luc expression (Steady-Glo) and compound effect on cell abundance (CellTiter-Fluor), with increases shown for each well indicated by red, and decreases indicated by blue.
A fluorescence-based viability assay using GF-AFC substrate was used to determine compound effect on cell viability and Steady-Glo was used to measure luciferase in a multiplexed assay.

ATXN2-luc [9] = details: H2 cells
ATXN2-luc [10] = details: average ATXN2-luc response of H2 and S1 cells
ATXN2-luc [11] = assay: Secondary assays, Bright-Glo luciferase in H2 and S2 cells; type: cell-based
Protocol: (§3) Compounds were plated at 2× concentrations in 25 μl in 384 well plates with each compound dose plated in triplicate. An equal volume of S2, H2, or SC cells (24,000 cells/well) suspended in phenol-red free Dulbecco's Modified Eagle Medium (DMEM) with 10% fetal bovine serum and 1× penicillin/streptomycin were added. Cells were grown 24 hrs then assayed first by using the CellTiter-Fluor reagent (20 μl) followed by the addition of Bright-Glo ([…]) luciferase assay, using a multimode plate reader (Beckman DT880). Values were reported as the mean±standard deviation (SD) with n=3. IC50s were determined by the Hill coefficient method using an online tool (https://www.aatbio.com/tools/ic50-calculator).
(§4) These 46 compounds were retested at 12 doses and a zero-compound dose, in multiplexed assays in 96-well plates using CellTiter-Fluor to determine cell viability, then Bright-Glo to determine luciferase expression. The values for H2 and S2 were used as replicates to calculate IC50s and to assess cell viability.
(§5) For CMV-luc and viability charts, the fitted lines are second-order polynomials. Means and SD are shown.

CMV-luc = assay: Secondary assays, Bright-Glo luciferase in SC cells; type: cell-based; details: minimum CMV-luc luciferase in SC cells over 12 doses
Protocol: as §3, §5

H2, S2, and SC cells = assay: Secondary assays, CellTiter-Fluor viability; details: minimum cell viability, CellTiter-Fluor, over 12 doses
Protocol: as §3, §4, §5

ATXN2-luc [12] = assay: Orthogonal ATXN2-luc luciferase assay in H2 cells; type: cell-based
Excerpt: as §7

H2 cells = assay: Orthogonal paired MTT viability in H2 cells; type: cell-based; details: at 1 nM
Protocol: ATXN2 expression associates with the expression of the proscillaridin A target ATP1A2. […] The cells were also evaluated for viability by MTT assay. Values shown are means and standard deviations. HEK-293 cells were then treated with increasing doses of proscillaridin A for either 24 and 48 hours, showing >50% reduction of endogenous ATXN2 when cells were treated with 1 nM proscillaridin A at 48 hours.

endogenous ATXN2 = assay: Endogenous ATXN2 expression in HEK-293 cells by qPCR; type: cell-based
Excerpt: as §6, §7

[13] = S2 cells, LOPAC1280 library, 24 hrs
[14] = Table 1, 24 hrs, single 10 μM dose, Z-score of luciferase

For CO[C@H]1/C=C\C=C(/C)C(=O)NC2=CC(=O)C(NCCN(C)C)=C(C[C@@H](C)C[C@H](OC)[C@H](O)[C@@H](C)/C=C(\C)[C@@H]1OC(N)=O)C2=O [17-DMAG, 17-dimethylaminoethylamino-17-demethoxygeldanamycin], the ATXN2-luc transcription (ATXN2-luc mRNA) was “reduction of ATXN2-luc transcription”, the “expression of endogenous non-mutant ATXN2 protein” value [1] was “reduced the expression; also recorded: reduction of endogenous non-mutant ATXN2 protein” and the “mutant ATXN2-Q58 protein” value (mutant ATXN2-Q58 protein) was “reduced the expression; also recorded: significantly reduced mutant ATXN2 protein; also recorded: reduction of ATXN2 protein”. For the same compound, the HSP70 (HSP70 [2]) was “elevated HSP70; also recorded: increase in HSP70”, the BiP [3] was “further elevated BiP” and the “abundance of STAU1, autophagy marker proteins (mTOR, p62, LC3b) and UPR proteins CHOP and eIF3α” value [3] was “restored abundance”. The “reduction of ATXN2 protein abundance” value (ATXN2-Q22) was 90%, the ATXN2 abundance (ATXN2-Q22) was “reduced ATXN2 abundance” and the HSP70 (HSP70 [4]) was “HSP70 induction”. For the same compound, the survival / tolerability [5] was “well-tolerated”, the ATXN3 protein abundance (ATXN3; CNS tissues) was “reduced ATXN3 protein abundance in CNS tissues” and the motor coordination (ATXN3) was “improved motor coordination”. For the same compound, the oral bioavailability [6] was “orally bioavailable”.
For COc1cccc(-c2cc(F)ccc2[C@H]2Cc3nc(N)nc(C)c3C(=O)N2)n1 [HSP990], the “reduction of ATXN2 protein abundance” value (ATXN2-Q22) was 80%, the ATXN2 abundance (ATXN2-Q22) was “reduced ATXN2 abundance” and the HSP70 (HSP70 [4]) was “increased HSP70”. For the same compound, the survival / tolerability [5] was “the two females in the HSP990 treatment group did not survive; also recorded: half of the mice treated with HSP990 did not survive treatment” and the “toxicity in clinical trial” value [7] was “dose-limiting neurotoxicities”.
With C[C@H]1O[C@@H](O[C@H]2CC[C@]3(C=O)[C@H]4CC[C@]5(C)[C@@H](C6=CC(=O)OC6)CC[C@]5(O)[C@@H]4CC[C@]3(O)C2)C[C@H](O)[C@@H]1O [Helveticoside] the “Curve Class” value (ATXN2-luc [8]; [13]) was −1.1, the “SD from Mean” value (ATXN2-luc [9]; [14]) was −2.733 SD and the “SD from Mean” value (ATXN2-luc [9]; Table 5S, pilot screen, 10 μM) was −2.733 SD. The “Luc at 1 μm” value (ATXN2-luc [10]) was 118 and the “Luc at 10 μm” value (ATXN2-luc [10]) was 41.
For C[C@@H]1O[C@@H](O[C@@H]2C=C3CC[C@@H]4[C@H](CC[C@]5(C)[C@@H](c6ccc(=O)oc6)CC[C@]45O)[C@@]3(C)CC2)[C@H](O)[C@H](O)[C@H]1O [Proscillaridin A], the IC50 (ATXN2-luc [11]; H2 and S2 used as replicates, 24 hrs, read-out: IC50 (ATXN2-luc, secondary assays)) was 17 nM, the “min ATXN2-luc” value (ATXN2-luc [11]; minimum ATXN2-luc luciferase over 12 doses, H2 and S2 cells) was 7.986% and the “min SC luc” value (CMV-luc) was 122%. It also gave a min viability (H2, S2, and SC cells) of 74.18%, an IC50 (ATXN2-luc [12]; H2 cells treated for 48 hrs, read-out: IC50 (ATXN2-luc expression)) of 0.052 nM and an ATXN2-luc reduction (ATXN2-luc [12]; H2 cells, at 1 nM) of 80%. For the same compound, the “cellular viability (MTT method)” value (H2 cells) was “minimal effect on cellular viability”, the “reduction of endogenous ATXN2” value (endogenous ATXN2; 1 nM, 48 hours) was greater than 50% and the IC50 (endogenous ATXN2; 48 hrs) was 677 nM. The “SD from Mean” value (ATXN2-luc [9]; [14]) was −7.684 SD, the “SD from Mean” value (ATXN2-luc [9]; Table 5S, pilot screen, 10 μM) was −7.684 SD and the “Luc at 1 μm” value (ATXN2-luc [10]) was 54. The “Luc at 10 μm” value (ATXN2-luc [10]) was 22.
With Naltrindole hydrochloride the “Curve Class” value (ATXN2-luc [8]; [13]) was −2.2.
In the case of Protriptyline hydrochloride, the “Curve Class” value (ATXN2-luc [8]) is reported as −2.2.
